Structures can show the parent of a compound that is named as a salt.
Target: T1, Human Histamine H3 Receptor (Homo sapiens, UniProt Q9Y5N1)
T1 construct: expressed in transfected cells; host or cells: HEK293T (stably transfected; membranes prepared from the cells)
Assay: Methyl histamine binding in human histamine H3 receptor cell line
Settings: read-out: H3 Binding Ki
Outline: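 Radioligand binding on membranes (10 μg/well) from a human H3 receptor cell line, 1 nM radioligand, 1 h at 30° C. in 50 mM Tris pH 7.5. Nonspecific binding defined with 10 uM clobenpropit, followed by filtration and scintillation counting. IC50 from four-parameter fit, converted to Ki by Cheng-Prusoff.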

T1 sequence (Q9Y5N1 whole entry): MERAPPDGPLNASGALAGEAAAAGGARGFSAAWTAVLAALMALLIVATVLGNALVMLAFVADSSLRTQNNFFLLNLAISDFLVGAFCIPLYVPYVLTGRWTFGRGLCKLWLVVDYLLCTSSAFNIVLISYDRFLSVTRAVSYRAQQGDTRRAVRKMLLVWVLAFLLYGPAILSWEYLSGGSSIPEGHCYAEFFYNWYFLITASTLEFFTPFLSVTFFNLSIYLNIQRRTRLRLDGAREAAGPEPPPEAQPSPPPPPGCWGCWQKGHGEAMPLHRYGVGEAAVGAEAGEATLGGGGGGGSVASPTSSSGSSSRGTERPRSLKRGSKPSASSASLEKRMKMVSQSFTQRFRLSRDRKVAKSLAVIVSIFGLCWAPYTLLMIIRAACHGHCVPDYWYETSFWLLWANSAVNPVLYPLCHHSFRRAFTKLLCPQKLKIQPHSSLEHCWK

Compound	Ki
C[C@@H]1CCCN1CCN1CCc2cc(-n3cnc4ccccc43)ccc2C1=O [Example 154, (R)-6-(1H-benzo[d]imidazol-1-yl)-2-(2-(2-methylpyrrolidin-1-yl)ethyl)-3,4-dihydroisoquinolin-1(2H)-one hydrochloride]	< 10 nM
C[C@@H]1CCCN1CCN1CCc2cc(-c3ccc4c(c3)CCNC4=O)ccc2C1=O [Example 157, (R)-2-(2-(2-methylpyrrolidin-1-yl)ethyl)-3,3′,4,4′-tetrahydro-6,6′-biisoquinoline-1,1′(2H,2′H-dione hydrochloride]	< 10 nM
C[C@@H]1CCCN1CCN1CCc2cc(Oc3ccc(C(=O)N4CCCC4)cc3)ccc2C1=O [Example 160, 2-{2-[(2R)-2-methylpyrrolidin-1-yl]ethyl}-6-[4-(pyrrolidin-1-ylcarbonyl)phenoxy]-3,4-dihydroisoquinolin-1(2H)-one hydrochloride]	< 10 nM
C[C@@H]1CCCN1CCN1CCc2cc(N3CCCCC3)ccc2C1=O [Example 161, 2-{2-[(2R)-2-methylpyrrolidin-1-yl]ethyl}-6-piperidin-1-yl-3,4-dihydroisoquinolin-1(2H)-one]	< 10 nM

The next lines start with the values.

Ki	Compound
10.1 to 25 nM	NC(=O)c1ccc(-c2ccc3c(c2)CCN(CCN2CCCC2)C3)cc1 [Example 180, 4-[2-(2-pyrrolidin-1-ylethyl)-1,2,3,4-tetrahydroisoquinolin-6-yl]benzamide]
< 10 nM	CNC(=O)c1ccc(-c2ccc3c(c2)CCN(CCN2CCCC2)C3)cc1 [Example 181, N-methyl-4-[2-(2-pyrrolidin-1-ylethyl)-1,2,3,4-tetrahydroisoquinolin-6-yl]benzamide]
< 10 nM	CCNC(=O)c1ccc(-c2ccc3c(c2)CCN(CCN2CCCC2)C3)cc1 [Example 182, N-ethyl-4-[2-(2-pyrrolidin-1-ylethyl)-1,2,3,4-tetrahydroisoquinolin-6-yl]benzamide]
< 10 nM	CN(C)C(=O)c1ccc(-c2ccc3c(c2)CCN(CCN2CCCC2)C3)cc1 [Example 183, N,N-dimethyl-4-[2-(2-pyrrolidin-1-ylethyl)-1,2,3,4-tetrahydroisoquinolin-6-yl]benzamide]
< 10 nM	O=C(c1ccc(-c2ccc3c(c2)CCN(CCN2CCCC2)C3)cc1)N1CCCC1 [Example 184, 6-[4-(pyrrolidin-1-ylcarbonyl)phenyl]-2-(2-pyrrolidin-1-ylethyl)-1,2,3,4-tetrahydroisoquinoline]
10.1 to 25 nM	O=C(c1ccc(-c2ccc3c(c2)CCN(CCN2CCCC2)C3)cc1)N1CCCCC1 [Example 185, 6-[4-(piperidin-1-ylcarbonyl)phenyl]-2-(2-pyrrolidin-1-ylethyl)-1,2,3,4-tetrahydroisoquinoline]
< 10 nM	O=C(c1ccc(-c2ccc3c(c2)CCN(CCN2CCCC2)C3)cc1)N1CCOCC1 [Example 186, 6-[4-(morpholin-4-ylcarbonyl)phenyl]-2-(2-pyrrolidin-1-ylethyl)-1,2,3,4-tetrahydroisoquinoline]
10.1 to 25 nM	C[C@@H]1CCCN1C(=O)c1ccc(-c2ccc3c(c2)CCN(CCN2CCCC2)C3)cc1 [Example 187]

Test system: not given
Assay: not given
Settings: not given

Compound	melting point
O=C(O)c1ccc(Oc2ccc3c(c2)CCN(CCN2CCCC2)C3=O)cc1	99 to 100 °C
C[C@@H]1CCCN1CCN1Cc2ccc(-c3ccc(F)cc3)cc2C1 (as salt: hydrochloride)	250 to 251 °C
COc1ccc2c(c1)CCN(CCN1CCCC1)C2=O (as salt: hydrochloride)	201 to 202 °C
COC(=O)c1ccc(Oc2ccc3c(c2)CCN(CCN2CCCC2)C3=O)cc1 (as salt: hydrochloride)	215 to 216 °C
O=C1c2ccc(-c3cc(F)cc(F)c3)cc2CCN1CCN1CCCC1 (as salt: hydrochloride) [Example 10, 6-(3,5-difluorophenyl)-2-(2-pyrrolidin-1-ylethyl)-3,4-dihydroisoquinolin-1(2H)-one]	196 to 198 °C
O=C1c2ccc(-c3ccccc3F)cc2CCN1CCN1CCCC1 (as salt: hydrochloride) [Example 12, 6-(2-fluorophenyl)-2-(2-pyrrolidin-1-ylethyl)-3,4-dihydroisoquinolin-1(2H)-one]	211 to 213 °C
O=C1c2ccc(-c3cccc(OC(F)(F)F)c3)cc2CCN1CCN1CCCC1 (as salt: hydrochloride) [Example 13, 2-(2-pyrrolidin-1-ylethyl)-6-[3-(trifluoromethoxy)phenyl]-3,4-dihydroisoquinolin-1(2H)-one]	135 to 137 °C
N#Cc1cccc(-c2ccc3c(c2)CCN(CCN2CCCC2)C3=O)c1 (as salt: hydrochloride) [Example 15, 3-[1-oxo-2-(2-pyrrolidin-1-ylethyl)-1,2,3,4-tetrahydroisoquinolin-6-yl]benzonitrile]	204 to 206 °C
O=C1c2ccc(-c3ccccc3)cc2CCN1CCN1CCCC1 (as salt: hydrochloride) [Example 16, 6-phenyl-2-(2-pyrrolidin-1-ylethyl)-3,4-dihydroisoquinolin-1(2H)-one]	218 to 220 °C
O=C1c2ccc(-c3ccc(F)c(F)c3)cc2CCN1CCN1CCCC1 (as salt: hydrochloride) [Example 17, 6-(3,4-difluorophenyl)-2-(2-pyrrolidin-1-ylethyl)-3,4-dihydroisoquinolin-1(2H)-one]	179 to 180 °C
O=C1c2ccc(-c3cccc(F)c3)cc2CCN1CCN1CCCC1 (as salt: hydrochloride) [Example 18, 6-(3-fluorophenyl)-2-(2-pyrrolidin-1-ylethyl)-3,4-dihydroisoquinolin-1(2H)-one]	182 to 184 °C
O=C1c2ccc(-c3cccc(C(F)(F)F)c3)cc2CCN1CCN1CCCC1 (as salt: hydrochloride) [Example 20, 2-(2-pyrrolidin-1-ylethyl)-6-[3-(trifluoromethyl)phenyl]-3,4-dihydroisoquinolin-1(2H)-one]	138 to 139 °C
O=C1c2ccc(-c3ccc4c(c3)OCO4)cc2CCN1CCN1CCCC1 (as salt: hydrochloride) [Example 21, 6-(1,3-benzodioxol-5-yl)-2-(2-pyrrolidin-1-ylethyl)-3,4-dihydroisoquinolin-1(2H)-one]	249 to 251 °C
C[C@@H]1CCCN1CCN1CCc2c(cccc2-c2cccc(C#N)c2)C1=O (as salt: hydrochloride) [Example 27, 3-(2-{2-[(2R)-2-methylpyrrolidin-1-yl]ethyl}-1-oxo-1,2,3,4-tetrahydroisoquinolin-5-yl)benzonitrile]	203 to 205 °C
N#Cc1cccc(-c2ccc3c(c2)CCN(CCCN2CCCC2)C3=O)c1 (as salt: hydrochloride) [Example 33, 3-[1-oxo-2-(3-pyrrolidin-1-ylpropyl)-1,2,3,4-tetrahydroisoquinolin-6-yl]benzonitrile]	175 to 176 °C
N#Cc1ccc2c(ccn2-c2ccc3c(c2)CCN(CCN2CCCC2)C3=O)c1 (as salt: hydrochloride) [Example 35, 1-[1-oxo-2-(2-pyrrolidin-1-ylethyl)-1,2,3,4-tetrahydroisoquinolin-6-yl]-1H-indole-5-carbonitrile Hydrochloride]	215 to 217 °C
O=C1c2ccc(-n3cccn3)cc2CCN1CCN1CCCC1 (as salt: hydrochloride) [Example 37, 6-(1H-pyrazol-1-yl)-2-(2-(pyrrolidin-1-yl)ethyl)-3,4-dihydroisoquinolin-1(2H)-one hydrochloride]	174 to 175 °C
O=C(c1ccc2c(c1)CCN(CCN1CCCC1)C2=O)N1CCCC1 (as salt: hydrochloride) [Example 38, 6-(pyrrolidin-1-ylcarbonyl)-2-(2-pyrrolidin-1-ylethyl)-3,4-dihydroisoquinolin-1(2H)-one hydrochloride]	194 to 196 °C
C[C@H]1CCCN1CCN1CCc2cc(-c3ccc(F)cc3)ccc2C1=O (as salt: hydrochloride) [Example 39, 6-(4-fluorophenyl)-2-{2-[(2S)-2-methylpyrrolidin-1-yl]ethyl}-3,4-dihydroiso-quinolin-1(2H)-one hydrochloride]	244 to 247 °C
C[C@@H]1CCCN1CCN1CCc2cc(-c3ccc(F)cc3)ccc2C1=O (as salt: hydrochloride) [Example 40, 6-(4-fluorophenyl)-2-{2-[(2R)-2-methylpyrrolidin-1-yl]ethyl}-3,4-dihydroisoquinolin-1(2H)-one]	236 to 238 °C

Continued, values first:

melting point	Compound
240 to 241 °C	CCCNC(=O)c1ccc(-c2ccc3c(c2)CCN(CCN2CCCC2)C3=O)cc1 (as salt: hydrochloride)
118 to 120 °C	COC(=O)c1ccc(-c2ccc3c(c2)CCN(CCN2CCCC2)C3=O)cc1 (as salt: hydrochloride)
249 to 251 °C	N#Cc1ccc(-c2ccc3c(c2)CCN(CCN2CCCC2)C3=O)cc1 (as salt: hydrochloride) [Example 19, 4-[1-oxo-2-(2-pyrrolidin-1-ylethyl)-1,2,3,4-tetrahydroisoquinolin-6-yl]benzonitrile]
243 to 244 °C	O=C1c2ccc(-c3ccc(C(F)(F)F)cc3)cc2CCN1CCN1CCCC1 (as salt: hydrochloride) [Example 22, 2-(2-pyrrolidin-1-ylethyl)-6-[4-(trifluoromethyl)phenyl]-3,4-dihydroisoquinolin-1(2H)-one]
224 to 225 °C	COc1ccc(-c2ccc3c(c2)CCN(CCN2CCCC2)C3=O)cc1 (as salt: hydrochloride) [Example 23, 6-(4-methoxyphenyl)-2-(2-pyrrolidin-1-ylethyl)-3,4-dihydroisoquinolin-1(2H)-one]
241 to 243 °C	O=C1c2ccc(-c3ccc(F)cc3)cc2CCN1CCN1CCCCC1 (as salt: hydrochloride) [Example 43, 6-(4-fluorophenyl)-2-(2-piperidin-1-ylethyl)-3,4-dihydroiso-quinolin-1(2H)-one hydrochloride]

Source: patent US20090069300A1, “ISOQUINOLINYL AND ISOINDOLINYL DERIVATIVES AS HISTAMINE-3 ANTAGONISTS” (Wyeth, priority 2007, published 2009)
